Key:
[1] = test system: serum calcium concentration; settings: standard used in the rat serum calcium assay; cited from earlier work
[2] = test system: serum calcium concentration; test: Biological assay of calcitonin analogs in vivo: reduction of serum calcium concentration, 2×2 parallel line assay; settings: rats, subcutaneous injection, blood withdrawn 1 hour later
Procedure: Biological Assay Of Calcitonin Analogs In Vivo
The biological potency of [Di-Ala^1,7 ]salmon calcitonin was determined by comparing the reduction of serum calcium concentration which followed administration by graded doses of [Di-Ala^1,7 ]SCT and synthetic salmon calcitonin standard. Rats were divided into four groups of seven animals, and each group was assigned at random to a dose of standard or test solution. Low and high doses were chosen from the linear portion of the dose-responsive curve. For the salmon calcitonin standard, the values were 0.7 and 2.1 mcg. peptide/100 g. body weight (BW). This dose approximates 3 and 9 MU/100 g. BW. Peptides were given by subcutaneous injection (0.2 ml/100 g. BW) and blood was withdrawn 1 hour later for serum calcium determination. Sera are processed and analyzed within two hours of collection. […]. Results were analyzed by a 2×2 parallel line assay [Gaddum, J. H., J. Pharm. Pharmacol., 6, 345 (1953)]. The standard salmon calcitonin used was independently determined to contain greater than 4,000 IU/mg. [Di-Ala^1,7 ]SCT assayed at 5550 IU/mg.

Substance: Salmon calcitonin [standard salmon calcitonin]
- potency of the standard salmon calcitonin, independently determined [1]: greater than 4,000 IU/mg

Substance: [1,7-Di-Alanine)]salmon calcitonin [[Di-Ala^1,7]SCT]
- biological potency (reduction of serum calcium concentration vs synthetic salmon calcitonin standard) [2]: 5550 IU/mg

Source: patent US4622386A, “[1,7-di-alanine]calcitonin” (Armour Pharmaceutical Company, priority 1985, dated 1986)
